In US20250368627A1, “PYRAZOLESULFONAMIDES AS ANTITUMOR AGENTS” (Peloton Therapeutics, Inc., a fully owned subsidiary of …, priority 2019, published 2025):

Tests used:
[1] = test system: HCT116 human colorectal carcinoma cells; assay: CellTiter-Glo Luminescent Cell Viability Assay; format: cell-based; conditions: HCT-116, 72 h, 3 days
Experimental: HCT116 human colorectal carcinoma cells were used in these experiments. HCT116 cells were obtained from ATCC. CellTiter-Glo® Luminescent Cell Viability Assay Reagent was obtained from Promega.
About 3,000 cells were seeded into 96-well plate with […] of media (DMEM supplemented with 10% FBS, 100 units penicillin, and […] streptomycin per mL) the day before the experiment. For compound treatment, the master plate was prepared as follows: 100× compound stocks were prepared in a 96-well plate by 1 to 3 serial dilutions of 0.5 mM DMSO stocks. Each master plate contained serial dilution of 8 compounds, including the control compound E7820. […] of 100× compound stock was added to each well of the assay plate to give final concentrations of […]. Each concentration was tested in triplicate. After 3 days, cell viability was determined using CellTiter-Glo Luminescent Cell Viability Assay Reagent following the manufacturer's recommended protocol. Briefly, […] of CellTiter-Glo reagent was added to each well of the assay plate and the contents were mixed for 3 minutes at 600 rpm on a shaker (Thermomixer R). The plate was immediately placed in a plate reader (Synergy 2) and the luminescence signal (0.5 second per well integration time) was determined. IC50 values were calculated using Dotmatics software.

[2] = target: T1, DDB1DB/DCAF15 and RBM39 R1R2 complex (Homo sapiens, UniProt Q14498+Q66K64); assay: DCAF15 RBM39 Complex Formation Assay (FRET); format: binding; conditions: FRET ratio Em 665/Em 615, incubated overnight at 4° C.
T1 construct: Amino acids 150 to 331 of RBM39 were cloned into pGEX4T3; GST (from vector pGEX4T3); TEV cleavage site (N); made in house; host or cells: DDB1DB/His-DCAF15: baculovirus/Sf9 co-expression; RBM39 R1R2: E. coli (pGEX4T3)
T1 sequence (Q66K64 whole entry, the tested form may be a part): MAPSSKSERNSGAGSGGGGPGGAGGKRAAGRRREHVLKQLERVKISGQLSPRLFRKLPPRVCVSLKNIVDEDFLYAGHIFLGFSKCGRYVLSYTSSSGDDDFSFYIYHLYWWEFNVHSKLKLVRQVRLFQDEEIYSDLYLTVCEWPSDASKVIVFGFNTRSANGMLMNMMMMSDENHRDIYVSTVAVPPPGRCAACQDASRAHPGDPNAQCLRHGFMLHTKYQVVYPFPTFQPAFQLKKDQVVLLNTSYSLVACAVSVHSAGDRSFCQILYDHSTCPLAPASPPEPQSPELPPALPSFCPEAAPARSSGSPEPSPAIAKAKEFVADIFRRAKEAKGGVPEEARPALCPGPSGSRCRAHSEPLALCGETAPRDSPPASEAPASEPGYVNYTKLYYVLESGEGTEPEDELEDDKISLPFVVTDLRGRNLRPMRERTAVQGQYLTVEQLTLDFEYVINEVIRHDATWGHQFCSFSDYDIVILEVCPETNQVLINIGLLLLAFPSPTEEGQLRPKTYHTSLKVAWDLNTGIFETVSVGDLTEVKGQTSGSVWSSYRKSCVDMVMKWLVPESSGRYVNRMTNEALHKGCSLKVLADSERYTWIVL
T1 sequence (Q14498 150-331): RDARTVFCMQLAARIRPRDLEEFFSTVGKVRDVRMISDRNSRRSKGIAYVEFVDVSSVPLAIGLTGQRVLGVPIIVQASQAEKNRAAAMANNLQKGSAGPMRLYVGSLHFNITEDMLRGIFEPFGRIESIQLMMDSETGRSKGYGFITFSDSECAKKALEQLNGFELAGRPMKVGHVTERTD
T1 sequence (Q16531 with tags, fused parts or gaps DEL396-708 partner): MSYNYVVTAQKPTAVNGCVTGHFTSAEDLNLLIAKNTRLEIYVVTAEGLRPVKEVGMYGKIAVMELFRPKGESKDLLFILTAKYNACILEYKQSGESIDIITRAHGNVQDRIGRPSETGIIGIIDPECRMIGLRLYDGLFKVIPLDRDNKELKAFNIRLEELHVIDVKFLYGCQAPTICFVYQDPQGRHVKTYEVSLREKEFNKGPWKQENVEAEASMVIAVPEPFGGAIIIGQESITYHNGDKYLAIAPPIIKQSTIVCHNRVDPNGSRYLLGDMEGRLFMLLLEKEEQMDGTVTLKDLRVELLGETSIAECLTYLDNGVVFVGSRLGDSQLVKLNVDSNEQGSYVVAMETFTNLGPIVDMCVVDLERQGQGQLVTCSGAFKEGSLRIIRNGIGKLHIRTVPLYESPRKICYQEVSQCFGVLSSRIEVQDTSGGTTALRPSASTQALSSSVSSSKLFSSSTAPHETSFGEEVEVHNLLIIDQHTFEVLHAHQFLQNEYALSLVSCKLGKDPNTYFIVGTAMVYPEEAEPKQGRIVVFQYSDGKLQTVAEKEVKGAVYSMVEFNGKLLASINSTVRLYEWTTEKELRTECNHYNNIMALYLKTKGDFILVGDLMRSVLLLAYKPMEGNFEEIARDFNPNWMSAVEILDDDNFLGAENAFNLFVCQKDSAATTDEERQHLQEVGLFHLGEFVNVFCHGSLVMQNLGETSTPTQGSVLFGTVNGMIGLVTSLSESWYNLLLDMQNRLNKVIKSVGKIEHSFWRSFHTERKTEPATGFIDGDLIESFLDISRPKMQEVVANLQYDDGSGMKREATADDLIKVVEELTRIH
Source text: LANCE Eu-W1024 Anti-6×His and SureLight Allophycocyanin-anti-FLAG antibodies were purchased from Perkin Elmer. Human DDB1DB and His-tagged DCAF15 were co-expressed in baculovirus/sf9 system. While full length DDB1 contains three 7-bladed propellers termed A, B, and C, DDB1DB has only propeller A (amino acids 1 to 395) and C (amino acids 709-1140). The His-tagged DCAF15 contains six histidine residues directly preceding the DCAF15 sequence without any linker. An RBM39 fragment containing RRM1 and RRM2 was expressed in E. coli. Amino acids 150 to 331 of RBM39 were cloned into pGEX4T3 with an N-terminal TEV cleavage site and a C-terminal FLAG tag.
A compound of the present disclosure in DMSO (2 μL) was transferred to a 384-well assay plate. Compound was added in 14 points, 3-fold serial dilution (1 μM to 0.6 pico molar) in DMSO. […] FRET assay buffer (25 mM HEPES, pH 7.5, 100 mM NaCl, […], 0.5 mM TCEP, 0.005% Tween-20, 0.2 nM Eu—W1024 Anti-6×His, 50 nM SureLight Allophycocyanin-anti-FLAG, 20 nM DDB1DB/DCAF15, 50 nM RBM39 R1R2) was added and the resulting solution was incubated overnight at 4° C. The plate was placed in a plate reader (Spark 10) with excitation at 1=340 nm and emissions monitored at 1=665 nm and 1=615 nm, and the FRET ratio (Em 665/Em 615) was determined. Low signal controls containing no compound and high signal controls containing 10 mM indisulam were measured for each plate.
EC50 values were calculated using Dotmatics template equation for 4-parameter fit. Results are expressed as % formation using the following equation: […]

| SMILES | EC50 [1] [nM] | IC50 [2] [nM] |
| --- | --- | --- |
| Cn1cc(S(=O)(=O)Nc2ccc(F)c3c(Cl)c[nH]c23)cn1 [Compound 54, N-(3-chloro-4-fluoro-1H-indol-7-yl)-1-methyl-pyrazole-4-sulfonamide] | 250 to 1000 | < 250 |
| O=S(=O)(Nc1cccc2c(Cl)c[nH]c12)c1cnn(CF)c1 [Compound 56, N-(3-chloro-1H-indol-7-yl)-1-(fluoromethyl)pyrazole-4-sulfonamide] | 250 to 1000 | < 250 |
| O=S(=O)(Nc1cccc2c(Cl)c[nH]c12)c1cnn(CCCF)c1 [Compound 57, N-(3-chloro-1H-indol-7-yl)-1-(3-fluoropropyl)pyrazole-4-sulfonamide] | > 1000 | < 250 |
| Cc1ccc(NS(=O)(=O)c2cnn(C3CCC3)c2)c2[nH]cc(C#N)c12 [Compound 61, N-(3-cyano-4-methyl-1H-indol-7-yl)-1-cyclobutyl-pyrazole-4-sulfonamide] | 250 to 1000 | < 250 |
| Cc1ccc(NS(=O)(=O)c2cn[nH]c2)c2[nH]cc(C#N)c12 [Compound 62, N-(3-cyano-4-methyl-1H-indol-7-yl)-1H-pyrazole-4-sulfonamide] | 250 to 1000 | < 250 |
| Cc1ccc(NS(=O)(=O)c2cnn(C(C)C)c2)c2[nH]cc(C#N)c12 [Compound 63, N-(3-cyano-4-methyl-1H-indol-7-yl)-1-isopropyl-pyrazole-4-sulfonamide] | 250 to 1000 | < 250 |
| Cn1cc(S(=O)(=O)Nc2ccc(F)c3c(C#N)c[nH]c23)cn1 [Compound 65, N-(3-cyano-4-fluoro-1H-indol-7-yl)-1-methyl-pyrazole-4-sulfonamide] | 250 to 1000 | < 250 |
| Cc1ccc(NS(=O)(=O)c2cnn(CCS(C)(=O)=O)c2)c2[nH]cc(C#N)c12 [Compound 67, N-(3-cyano-4-methyl-1H-indol-7-yl)-1-(2-methylsulfonylethyl)pyrazole-4-sulfonamide] | 250 to 1000 | < 250 |
| Cc1ccc(NS(=O)(=O)c2cnn(CC3(C)COC3)c2)c2[nH]cc(C#N)c12 [Compound 71, N-(3-cyano-4-methyl-1H-indol-7-yl)-1-[(3-methyloxetan-3-yl)methyl]pyrazole-4-sulfonamide] | 250 to 1000 | < 250 |
| Cc1ccc(NS(=O)(=O)c2cnn(CC3(F)COC3)c2)c2[nH]cc(C#N)c12 [Compound 72, N-(3-cyano-4-methyl-1H-indol-7-yl)-1-[(3-fluorooxetan-3-yl)methyl]pyrazole-4-sulfonamide] | 250 to 1000 | < 250 |
| Cc1ccc(NS(=O)(=O)c2cnn(C)c2)c2[nH]ccc12 [Compound 74, 1-methyl-N-(4-methyl-1H-indol-7-yl)pyrazole-4-sulfonamide] | > 1000 | > 1000 |
| Cc1ccc(NS(=O)(=O)c2cnn(CC(C)(C)C#N)c2)c2[nH]cc(C#N)c12 [Compound 76, N-(3-cyano-4-methyl-1H-indol-7-yl)-1-(2-cyano-2-methyl-propyl)pyrazole-4-sulfonamide] | 250 to 1000 | < 250 |
| Cc1ccc(NS(=O)(=O)c2cnn(CC3CCC3)c2)c2[nH]cc(C#N)c12 [Compound 78, N-(3-cyano-4-methyl-1H-indol-7-yl)-1-(cyclobutylmethyl)pyrazole-4-sulfonamide] | 250 to 1000 | < 250 |
| Cc1ccc(NS(=O)(=O)c2cnn(CC3CC3(F)F)c2)c2[nH]cc(C#N)c12 (stereo not shown) [Compound 79, N-(3-cyano-4-methyl-1H-indol-7-yl)-1-[(2,2-difluorocyclopropyl)methyl]pyrazole-4-sulfonamide] | 250 to 1000 | < 250 |
| O=S(=O)(Nc1cccc2c(Cl)c[nH]c12)c1cnn(C2CC(O)C2)c1 (stereo not shown) [Compound 83, N-(3-chloro-1H-indol-7-yl)-1-(3-hydroxycyclobutyl)pyrazole-4-sulfonamide] | 250 to 1000 | < 250 |
| Cc1ccc(NS(=O)(=O)c2cnn(CC(C)(C)S(C)(=O)=O)c2)c2[nH]cc(C#N)c12 [Compound 84, N-(3-cyano-4-methyl-1H-indol-7-yl)-1-(2-methyl-2-methylsulfonyl-propyl)pyrazole-4-sulfonamide] | > 1000 | < 250 |

Second part, the molecule after the results:

| EC50 [1] [nM] | IC50 [2] [nM] | SMILES |
| --- | --- | --- |
| < 250 | < 250 | N#CCCn1cc(S(=O)(=O)Nc2cccc3c(Cl)c[nH]c23)cn1 [Compound 59, N-(3-chloro-1H-indol-7-yl)-1-(2-cyanoethyl)pyrazole-4-sulfonamide] |
| < 250 | < 250 | Cc1ccc(NS(=O)(=O)c2cnn(CC(F)(F)F)c2)c2[nH]cc(C#N)c12 [Compound 60, N-(3-cyano-4-methyl-1H-indol-7-yl)-1-(2,2,2-trifluoroethyl)pyrazole-4-sulfonamide] |
| < 250 | < 250 | Cc1ccc(NS(=O)(=O)c2cnn(C3COC3)c2)c2[nH]cc(C#N)c12 [Compound 64, N-(3-cyano-4-methyl-1H-indol-7-yl)-1-(oxetan-3-yl)pyrazole-4-sulfonamide] |
| < 250 | < 250 | Cc1ccc(NS(=O)(=O)c2cnn(CC(F)F)c2)c2[nH]cc(C#N)c12 [Compound 66, N-(3-cyano-4-methyl-1H-indol-7-yl)-1-(2,2-difluoroethyl)pyrazole-4-sulfonamide] |
| < 250 | < 250 | CCn1cc(S(=O)(=O)Nc2ccc(C)c3c(C#N)c[nH]c23)cn1 [Compound 68, N-(3-cyano-4-methyl-1H-indol-7-yl)-1-ethyl-pyrazole-4-sulfonamide] |
| < 250 | < 250 | Cc1ccc(NS(=O)(=O)c2cnn(CC3CC3)c2)c2[nH]cc(C#N)c12 [Compound 69, N-(3-cyano-4-methyl-1H-indol-7-yl)-1-(cyclopropylmethyl)pyrazole-4-sulfonamide] |
| < 250 | < 250 | Cc1ccc(NS(=O)(=O)c2cnn(CF)c2)c2[nH]cc(C#N)c12 [Compound 70, N-(3-cyano-4-methyl-1H-indol-7-yl)-1-(fluoromethyl)pyrazole-4-sulfonamide] |
| < 250 | < 250 | Cc1ccc(NS(=O)(=O)c2cnn(CCCF)c2)c2[nH]cc(C#N)c12 [Compound 73, N-(3-cyano-4-methyl-1H-indol-7-yl)-1-(3-fluoropropyl)pyrazole-4-sulfonamide] |
| < 250 | < 250 | Cc1ccc(NS(=O)(=O)c2cnn(C)c2)c2[nH]cc(Cl)c12 [Compound 75, N-(3-chloro-4-methyl-1H-indol-7-yl)-1-methyl-pyrazole-4-sulfonamide] |
| < 250 | < 250 | Cc1ccc(NS(=O)(=O)c2cnn(CCC#N)c2)c2[nH]cc(C#N)c12 [Compound 77, 1-(2-Cyanoethyl)-N-(3-cyano-4-methyl-1H-indol-7-yl)pyrazole-4-sulfonamide] |
| < 250 | < 250 | C=C(CF)n1cc(S(=O)(=O)Nc2ccc(C)c3c(C#N)c[nH]c23)cn1 [Compound 80, N-(3-cyano-4-methyl-1H-indol-7-yl)-1-[1-(fluoromethyl)vinyl]pyrazole-4-sulfonamide] |
| < 250 | < 250 | Cn1cc(S(=O)(=O)Nc2ccc(Cl)c3c(Cl)c[nH]c23)cn1 [Compound 81, N-(3,4-dichloro-1H-indol-7-yl)-1-methyl-pyrazole-4-sulfonamide] |
| < 250 | < 250 | Cn1cc(S(=O)(=O)Nc2ccc(Cl)c3c(C#N)c[nH]c23)cn1 [Compound 82, N-(4-chloro-3-cyano-1H-indol-7-yl)-1-methyl-pyrazole-4-sulfonamide] |
